From patent publication US11648254B2 (Kumquat Biosciences Inc., priority 2021, dated 2023)
Like-named read-outs stand apart in the source and are kept apart here.

Columns and labels:
[1] = biological target: SOS1 (Homo sapiens (Human), UniProt Q07889); assay: Ras-SOS interaction assay (HTRF); type: biochemical
[2] = test system: MIA PaCa-2 cells (K-Ras G12C); assay: Ras-SOS cellular growth inhibition assay (CellTiter-Glo, 3D); type: cell-based; conditions: Homo sapiens
In short: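 MIA PaCa-2 cells grown in ultra-low-attachment plates (3D) in DMEM/Ham's F12 with 10% FCS and 2.5% horse serum, treated the day after seeding with a 9-point 3-fold compound series for about 5 days. Viability by CellTiter-Glo luminescence; IC50 from four-parameter fit.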

[3] = Metabolic (microsomal) stability assay; type: in vitro ADME; conditions: mouse liver microsomes, T1/2; read-out: DMPK-invitro-metabolic Stability (Mouse T1/2)
Excerpt: Example 12: Metabolic (Microsomal) Stability Assay

[4] = test system: NCI-H1975 cells (EGFR T790M L858R); assay: EGFR-SOS cellular inhibition assay (CellTiter-Glo, 3D); type: cell-based; conditions: Homo sapiens
[5] = K-RasG13D utilized, read-out: IC50 inhibition of SOS
[6] = K-RasG13D, read-out: IC50 value against SOS1
[7] = MIA PaCa-2, 120 h, MIA PaCa-2, 3D proliferation, about 5 days, read-out: Bio-Cell-Prolif-3D (MiaPaca2 IC50)
[8] = MIA PaCa-2, MIA PaCa-2, read-out: IC50 in inhibiting MIA PaCa-2 cell growth
[9] = 120 h, NCI-H1975, 3D proliferation, about 5 days, read-out: Bio-Cell-Prolif-3D (H1975 IC50)
[10] = NCI-H1975, EGFR T790M L858R, read-out: IC50 in inhibiting growth of NCI-H1975 cell line

Sequence of SOS1 (Q07889 564-1049): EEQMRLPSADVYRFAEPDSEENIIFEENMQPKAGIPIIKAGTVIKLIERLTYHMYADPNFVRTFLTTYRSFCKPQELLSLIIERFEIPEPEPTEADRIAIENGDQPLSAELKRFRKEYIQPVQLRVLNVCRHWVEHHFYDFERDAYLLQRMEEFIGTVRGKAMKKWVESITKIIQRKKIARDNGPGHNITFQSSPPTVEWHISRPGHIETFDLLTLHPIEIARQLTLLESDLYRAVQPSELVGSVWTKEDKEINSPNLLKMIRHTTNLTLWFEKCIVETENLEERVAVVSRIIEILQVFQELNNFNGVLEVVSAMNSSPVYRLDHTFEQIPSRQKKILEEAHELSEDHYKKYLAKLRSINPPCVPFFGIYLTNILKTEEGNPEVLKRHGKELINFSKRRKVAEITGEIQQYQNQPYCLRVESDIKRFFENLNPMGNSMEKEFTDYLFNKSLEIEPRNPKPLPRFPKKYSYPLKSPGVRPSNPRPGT

Row | SMILES | IC50 [1, 5] [nM] | IC50 [1, 6] [nM] | IC50 [2, 7] [nM] | IC50 [2, 8] [nM] | half-life [3] [h] | IC50 [4, 9] [nM] | IC50 [4, 10] [nM]
1 | Cc1nc(N[C@H](C)c2cccc(C(F)(F)CO)c2F)c2cc(C3(C#N)CC3)c(Cl)nc2n1 [Compound 195, (R)-1-(7-chloro-4-((1-(3-(1,1-difluoro-2-hydroxyethyl)-2-fluorophenyl)ethyl)amino)-2-methylpyrido[2,3-d]pyrimidin-6-yl)cyclopropane-1-carbonitrile] | < 100 | < 50 | ≤ 1000 | < 500 | 0.352 | ≤ 1000 | –
2 | C[C@@H](Nc1ncnc2nc(OC3CN(C)C3)c(C3(C#N)CC3)cc12)c1cccc(C(F)F)c1F [Compound 405, (R)-1-(4-((1-(3-(difluoromethyl)-2-fluorophenyl)ethyl)amino)-7-((1-methylazetidin-3-yl)oxy)pyrido[2,3-d]pyrimidin-6-yl)cyclopropane-1-carbonitrile] | < 100 | < 50 | ≤ 1000 | – | > 3.33 | ≤ 1000 | < 500
3 | Cc1nc(N[C@H](C)c2cccc(C(F)(F)C(C)(C)O)c2)c2cc(C3(C#N)CC3)c(Cl)nc2n1 [Compound 193, (R)-1-(7-chloro-4-((1-(3-(1,1-difluoro-2-hydroxy-2-methylpropyl)phenyl)ethyl)amino)-2-methylpyrido[2,3-d]pyrimidin-6-yl)cyclopropane-1-carbonitrile] | < 100 | < 50 | ≤ 1000 | < 500 | > 3.33 | ≤ 1000 | < 500
4 | Cc1nc(N[C@H](C)c2cccc(C(F)F)c2F)c2cc(C3(C#N)CC3)c(OC3COC3)nc2n1 [Compound 402, (R)-1-(4-((1-(3-(difluoromethyl)-2-fluorophenyl)ethyl)amino)-2-methyl-7-(oxetan-3-yloxy)pyrido[2,3-d]pyrimidin-6-yl)cyclopropane-1-carbonitrile] | < 100 | – | ≤ 1000 | < 500 | 0.322 | ≤ 1000 | –
5 | Cc1nc(N[C@H](C)c2cccc(C(F)(F)[C@@H](C)O)c2)c2cc(C3(C#N)CC3)c(Cl)nc2n1 [Compound 219, 1-(7-chloro-4-(((R)-1-(3-((R)-1,1-difluoro-2-hydroxypropyl)phenyl)ethyl)amino)-2-methylpyrido[2,3-d]pyrimidin-6-yl)cyclopropane-1-carbonitrile] | < 100 | < 50 | ≤ 1000 | < 500 | 1.65 | ≤ 1000 | < 500
6 | C[C@@H](Nc1ncnc2nc(Cl)c(C3(C#N)CC3)cc12)c1cccc(C(F)F)c1F [Compound 200, (R)-1-(7-chloro-4-((1-(3-(difluoromethyl)-2-fluorophenyl)ethyl)amino)pyrido[2,3-d]pyrimidin-6-yl)cyclopropane-1-carbonitrile] | < 100 | < 50 | ≤ 1000 | – | 2.57 | ≤ 1000 | < 500
7 | Cc1nc(N[C@H](C)c2cccc(C(F)F)c2F)c2cc(C3(C#N)CC3)c(OC3CN(C)C3)nc2n1 [Compound 234, (R)-1-(4-((1-(3-(difluoromethyl)-2-fluorophenyl)ethyl)amino)-2-methyl-7-((1-methylazetidin-3-yl)oxy)pyrido[2,3-d]pyrimidin-6-yl)cyclopropane-1-carbonitrile] | < 100 | < 50 | ≤ 1000 | – | 0.703 | ≤ 1000 | < 500
8 | C[C@@H](Nc1ncnc2nc(OC3COC3)c(C3(C#N)CC3)cc12)c1cccc(C(F)F)c1F [Compound 400, (R)-1-(4-((1-(3-(difluoromethyl)-2-fluorophenyl)ethyl)amino)-7-(oxetan-3-yloxy)pyrido[2,3-d]pyrimidin-6-yl)cyclopropane-1-carbonitrile] | 100 to 1000 | – | ≤ 1000 | < 500 | 0.49 | ≤ 1000 | –
9 | Cc1nc(N[C@H](C)c2cccc(C(F)F)c2F)c2cc(C3(C#N)CC3)c(O[C@@H]3CCOC3)nc2n1 [Compound 298, 1-(4-(((R)-1-(3-(difluoromethyl)-2-fluorophenyl)ethyl)amino)-2-methyl-7-(((R)-tetrahydrofuran-3-yl)oxy)pyrido[2,3-d]pyrimidin-6-yl)cyclopropane-1-carbonitrile] | 100 to 1000 | – | ≤ 1000 | – | 0.025 | ≤ 1000 | –
10 | Cc1nc(N[C@H](C)c2cccc(C(F)(F)[C@H](C)O)c2)c2cc(C3(C#N)CC3)c(Cl)nc2n1 [Compound 220, 1-(7-chloro-4-(((R)-1-(3-((S)-1,1-difluoro-2-hydroxypropyl)phenyl)ethyl)amino)-2-methylpyrido[2,3-d]pyrimidin-6-yl)cyclopropane-1-carbonitrile] | < 100 | < 50 | ≤ 1000 | < 500 | 1.67 | ≤ 1000 | < 500
11 | C[C@@H](Nc1ncnc2nc(Cl)c(C3(C#N)CC3)cc12)c1cccc(C(F)(F)[C@@H](C)O)c1 [Compound 214, 1-(7-chloro-4-(((R)-1-(3-((R)-1,1-difluoro-2-hydroxypropyl)phenyl)ethyl)amino)pyrido[2,3-d]pyrimidin-6-yl) cyclopropane-1-carbonitrile] | < 100 | < 50 | ≤ 1000 | < 500 | > 3.33 | ≤ 1000 | < 500
12 | C[C@H](O)C(F)(F)c1cccc([C@@H](C)Nc2ncnc3nc(Cl)c(C4(C#N)CC4)cc23)c1F [Compound 417, 1-(7-chloro-4-(((R)-1-(3-((S)-1,1-difluoro-2-hydroxypropyl)-2-fluorophenyl)ethyl)amino)pyrido[2,3-d]pyrimidin-6-yl)cyclopropane-1-carbonitrile] | < 100 | < 50 | ≤ 1000 | – | > 3.33 | ≤ 1000 | < 500
13 | C[C@@H](Nc1ncnc2nc(O[C@@H]3CCOC3)c(C3(C#N)CC3)cc12)c1cccc(C(F)F)c1F [Compound 409, 1-(4-(((R)-1-(3-(difluoromethyl)-2-fluorophenyl)ethyl)amino)-7-(((R)-tetrahydrofuran-3-yl)oxy)pyrido[2,3-d]pyrimidin-6-yl)cyclopropane-1-carbonitrile] | 100 to 1000 | – | ≤ 1000 | – | 0.0933 | ≤ 1000 | < 500
14 | C[C@@H](Nc1ncnc2nc(Cl)c(C3(C#N)CC3)cc12)c1cccc(C(F)(F)C(C)(C)O)c1F [Compound 361, (R)-1-(7-chloro-4-((1-(3-(1,1-difluoro-2-hydroxy-2-methylpropyl)-2-fluorophenyl)ethyl)amino)pyrido[2,3-d]pyrimidin-6-yl)cyclopropane-1-carbonitrile] | < 100 | < 50 | 1000 to 10000 | – | > 3.33 | ≤ 1000 | < 500
15 | Cc1nc(N[C@H](C)c2cccc(C(F)(F)C(C)(C)O)c2F)c2cc(C3(C#N)CC3)c(Cl)nc2n1 [Compound 170, (R)-1-(7-chloro-4-((1-(3-(1,1-difluoro-2-hydroxy-2-methylpropyl)-2-fluorophenyl)ethyl)amino)-2-methylpyrido[2,3-d]pyrimidin-6-yl)cyclopropane-1-carbonitrile] | < 100 | – | ≤ 1000 | < 500 | > 3.33 | ≤ 1000 | < 500
16 | C[C@@H](Nc1ncnc2nc(Cl)c(C3(C#N)CC3)cc12)c1cccc(C(F)(F)[C@@H](C)O)c1F [Compound 365, 1-(7-chloro-4-(((R)-1-(3-((R)-1,1-difluoro-2-hydroxypropyl)-2-fluorophenyl)ethyl)amino)pyrido [2,3-d]pyrimidin-6-yl)cyclopropane-1-carbonitrile] | < 100 | < 50 | ≤ 1000 | – | > 3.33 | ≤ 1000 | < 500
17 | C[C@@H](Nc1ncnc2nc(Cl)c(C3(C#N)CC3)cc12)c1cccc(C(F)(F)CO)c1F [Compound 362, (R)-1-(7-chloro-4-((1-(3-(1,1-difluoro-2-hydroxyethyl)-2-fluorophenyl)ethyl)amino)pyrido[2,3-d]pyrimidin-6-yl)cyclopropane-1-carbonitrile] | < 100 | < 50 | 1000 to 10000 | – | 0.817 | ≤ 1000 | < 500
18 | C[C@@H](Nc1ncnc2nc(Cl)c(C3(C#N)CC3)cc12)c1cccc(C(F)(F)C(C)(C)O)c1 [Compound 363, (R)-1-(7-chloro-4-((1-(3-(1,1-difluoro-2-hydroxy-2-methylpropyl)phenyl)ethyl)amino)pyrido [2,3-d]pyrimidin-6-yl)cyclopropane-1-carbonitrile] | < 100 | < 50 | ≤ 1000 | < 500 | > 3.33 | ≤ 1000 | < 500
